Experimental data as given in patent US11124498B2, “Compositions and methods for modulating protease activity” (THE REGENTS OF THE UNIVERSITY OF CALIFORNIA, priority 2016, dated 2021).
pIC50: −log10 of the molar value. Residues, ends and D or L forms follow the SMILES beside them. *: point of attachment. Octanoyl = CCCCCCCC(=O)*

Columns and labels:
cathepsin L = molecular target: T1, cathepsin L (Homo sapiens, UniProt P07711); assay: in vitro protease inhibition assay, cathepsin L; format: biochemical; conditions: z-FR-AMC substrate, MES buffer pH 5.5
T1 construct: purchased R&D Systems
T1 sequence (P07711 114-333): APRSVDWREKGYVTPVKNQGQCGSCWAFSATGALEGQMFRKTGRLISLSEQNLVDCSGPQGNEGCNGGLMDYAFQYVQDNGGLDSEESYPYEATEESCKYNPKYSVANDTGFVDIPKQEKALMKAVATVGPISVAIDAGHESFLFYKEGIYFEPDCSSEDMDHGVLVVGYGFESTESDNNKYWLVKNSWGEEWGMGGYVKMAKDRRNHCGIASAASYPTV
Method: (§1) Protease Inhibition Assays. Detailed information about synthesis of N-Boc-protected peptidyl aldehydes and their deprotection for protease inhibition activity tests are available in the Extended Experimental Procedures. For protease inhibition assays, all fluorescence measurements were made on a Biotek H4 instrument. Buffering reagents were purchased from Sigma-Aldrich and sterile-filtered prior to use. Compounds and substrates were diluted from DMSO stocks into water/DMSO such that final DMSO plate concentrations were below 5% during the reaction. All reactions were started by the addition of substrate to the enzyme/compound solutions (see also Extended Experimental Procedures).
Deprotection of Boc-protected dipeptide aldehyde compounds. All the deprotection experiments were performed in an anaerobic chamber. Trifluoroacetic acid (TFA) was added to the purified Boc-protected dipeptidyl aldehydes. 1 μL of the reaction was added to 100 μL 80% DMSO in ddH2O and a 0.5 μL portion of the solution was examined by an Agilent 6530 qTOF LC/MS. For preparing dipeptide aldehyde solution for protease inhibition assays, the deprotection reaction was left at 30° C. for 15 mins. Then ddH2O was added to quench the reaction and give a 2.5 mM peptidyl aldehydes in 1% TFA solution. Some side products like isobutylene and their corresponding imine and pyrazinone products have poor water solubility. […]

cathepsin S = molecular target: T2, cathepsin S (Homo sapiens, UniProt P25774); assay: in vitro protease inhibition assay, cathepsin S; format: biochemical; conditions: z-FR-AMC substrate, MES buffer pH 5.5, read-out: activity against cathepsin S
T2 construct: purchased R&D Systems
T2 sequence (P25774 115-331): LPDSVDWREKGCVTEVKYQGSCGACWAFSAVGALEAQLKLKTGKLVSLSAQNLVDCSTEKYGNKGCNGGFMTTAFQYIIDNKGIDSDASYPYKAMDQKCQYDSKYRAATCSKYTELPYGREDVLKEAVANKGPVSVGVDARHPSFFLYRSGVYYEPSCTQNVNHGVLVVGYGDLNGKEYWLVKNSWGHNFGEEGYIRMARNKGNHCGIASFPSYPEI
Method: as §1
Detailed procedures for protease inhibition assays. Enzymes: cathepsin L, cathepsin B, cathepsin C and cathepsin S were purchased from R&D Systems trypsin, chymotrypsin and calpain I were purchased from Sigma-Aldrich. Calpain I was also purchased from Abcam. Human 20s proteasome was purchased from Boston Biochem.
Substrates: z-FR-AMC, Boc-IEGR-AMC, Suc-ALPF-AMC and GR-AMC were purchased from Bachem. Suc-LLVY-AMC was purchased from Anaspec. Substrates were used without further purification.
Inhibitors: Carfilzomib was a generous gift from Onyx Pharmaceuticals and was used as a positive control in the proteasome inhibition assay. […]

cathepsin B (CTSB) = molecular target: T3, cathepsin B (CTSB) (Homo sapiens, UniProt P07858); assay: competitive isoTOP-ABPP, blockade of IA-alkyne labeling, cathepsin B; format: binding; conditions: THP-1 membranes, 250 nM Phe-Phe-H
T3 construct: We treated membrane preparations of the human innate immune (monocytic) cell line THP-1 with the bgc35 product Phe-Phe-H; endogenous in cells; host or cells: THP-1 membrane fraction
Description: (§2) The proteases we assayed were chosen based on literature precedent. To determine the target of the peptide aldehydes in an unbiased way, we applied a quantitative chemical proteomic method, termed isoTOP-ABPP (Weerapana et al. 2010, Backus et al., 2016) to measure the global interactions of a representative dipeptide aldehyde, bgc35 product Phe-Phe-H, with cysteine residues in the human cell lysates. We treated membrane preparations of the human innate immune (monocytic) cell line THP-1 with the bgc35 product Phe-Phe-H or vehicle, and then these samples were treated with a cysteine reactive iodoacetamide-alkyne (IA-alkyne) probe and conjugated to an isotopically differentiated (heavy or light, respectively) TEV protease-cleavable biotin tag using copper-catalyzed azide-alkyne cycloaddition (CuAAC or click) chemistry. Vehicle- and peptide-treated samples were then combined, enriched, subjected to sequential trypsin and TEV digests and evaluated by LC-MS/MS. Site-specific blockade of IA-alkyne labeling as measured by quantitation of heavy/light MS1 chromatographic peaks designates cysteine residues that are targeted by Phe-Phe-H (heavy/light ratios, or R values>5; line, FIG. 3D). […]

cathepsin Z (CTSZ) = molecular target: T4, cathepsin Z (CTSZ) (Homo sapiens, UniProt Q9UBR2); assay: competitive isoTOP-ABPP, blockade of IA-alkyne labeling, cathepsin Z; format: binding
T4 construct: We treated membrane preparations of the human innate immune (monocytic) cell line THP-1 with the bgc35 product Phe-Phe-H; endogenous in cells; host or cells: THP-1 membrane fraction
T4 sequence (Q9UBR2 62-303): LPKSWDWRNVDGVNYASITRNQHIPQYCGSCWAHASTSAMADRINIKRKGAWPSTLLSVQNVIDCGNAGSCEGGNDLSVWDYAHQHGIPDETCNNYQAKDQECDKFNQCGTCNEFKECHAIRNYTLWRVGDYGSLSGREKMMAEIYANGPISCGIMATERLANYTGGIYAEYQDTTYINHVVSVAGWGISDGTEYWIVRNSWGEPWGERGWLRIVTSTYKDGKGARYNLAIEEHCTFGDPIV
Description: as §2

cathepsin L (CTSL1) = molecular target: T5, cathepsin L (CTSL1) (Homo sapiens, UniProt P07711); assay: competitive isoTOP-ABPP, blockade of IA-alkyne labeling, cathepsin L; format: binding; conditions: THP-1 membranes, 250 nM Phe-Phe-H
T5 construct: We treated membrane preparations of the human innate immune (monocytic) cell line THP-1 with the bgc35 product Phe-Phe-H; endogenous in cells; host or cells: THP-1 membrane fraction
T5 sequence (P07711 114-333): as the sequence (P07711 114-333) above
Description: as §2

cathepsin C (CTSC) = molecular target: T6, cathepsin C (CTSC) (Homo sapiens, UniProt P53634); assay: competitive isoTOP-ABPP, blockade of IA-alkyne labeling, cathepsin C; format: binding
T6 construct: endogenously expressed CTSC is post-translationally regulated; endogenous in cells; host or cells: THP-1 membrane fraction
T6 sequence (P53634 25-463): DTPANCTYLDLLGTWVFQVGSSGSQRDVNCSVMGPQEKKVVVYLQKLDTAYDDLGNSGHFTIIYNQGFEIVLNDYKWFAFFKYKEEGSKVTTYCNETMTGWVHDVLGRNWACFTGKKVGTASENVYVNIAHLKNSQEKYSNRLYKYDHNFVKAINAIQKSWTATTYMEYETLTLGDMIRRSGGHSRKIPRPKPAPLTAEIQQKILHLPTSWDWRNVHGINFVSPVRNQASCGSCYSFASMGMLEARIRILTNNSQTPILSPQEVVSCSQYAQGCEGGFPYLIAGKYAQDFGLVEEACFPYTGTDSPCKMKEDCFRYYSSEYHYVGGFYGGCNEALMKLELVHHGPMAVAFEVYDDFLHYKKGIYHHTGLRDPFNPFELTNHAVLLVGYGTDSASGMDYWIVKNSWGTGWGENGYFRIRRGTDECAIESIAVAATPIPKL
Description: as §2

cathepsin H (CTSH) = molecular target: T7, cathepsin H (CTSH) (Homo sapiens, UniProt P09668); assay: competitive isoTOP-ABPP, blockade of IA-alkyne labeling, cathepsin H; format: binding; conditions: THP-1 membranes, 250 nM Phe-Phe-H
T7 construct: We treated membrane preparations of the human innate immune (monocytic) cell line THP-1 with the bgc35 product Phe-Phe-H; endogenous in cells; host or cells: THP-1 membrane fraction
T7 sequence (P09668 98-335): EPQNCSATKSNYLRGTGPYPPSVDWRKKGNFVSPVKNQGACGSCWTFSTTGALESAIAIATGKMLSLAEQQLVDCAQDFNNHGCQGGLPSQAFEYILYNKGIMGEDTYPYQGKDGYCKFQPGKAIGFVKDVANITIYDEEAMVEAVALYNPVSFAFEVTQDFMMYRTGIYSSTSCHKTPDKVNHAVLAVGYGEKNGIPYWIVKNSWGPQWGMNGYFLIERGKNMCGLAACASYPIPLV
Description: as §2

cathepsin S (CTSS) = molecular target: T8, cathepsin S (CTSS) (Homo sapiens, UniProt P25774); assay: competitive isoTOP-ABPP, blockade of IA-alkyne labeling, cathepsin S; format: binding
T8 construct: We treated membrane preparations of the human innate immune (monocytic) cell line THP-1 with the bgc35 product Phe-Phe-H; endogenous in cells; host or cells: THP-1 membrane fraction
T8 sequence (P25774 115-331): as the sequence (P25774 115-331) above
Description: as §2

[1] = system: more than 3500 total quantified cysteines across three different human cell proteomes; assay: competitive isoTOP-ABPP, proteome-wide selectivity over non-cathepsin cysteines; format: binding; conditions: more than 3500 quantified cysteines, no additional targets
Description: as §2

[2] = THP-1 and other human cell proteomes (Ramos, H1975), 25 μM Phe-Phe-H
[3] = THP-1 membranes, 250 nM Phe-Phe-H

| inhibitory activity (IC50) against cathepsin L (cathepsin L) | pIC50 (cathepsin S) | heavy/light MS1 ratio (R value), CTSB (cathepsin B (CTSB)) | heavy/light MS1 ratio (R value), CTSZ (cathepsin Z (CTSZ); [2]) | heavy/light MS1 ratio (R value), CTSZ (cathepsin Z (CTSZ); [3]) | heavy/light MS1 ratio (R value), CTSL1 catalytic cysteine Cys138 (cathepsin L (CTSL1)) | heavy/light MS1 ratio (R value), CTSC (cathepsin C (CTSC); [2]) | heavy/light MS1 ratio (R value), CTSC catalytic cysteine Cys258 (cathepsin C (CTSC); [3]) | heavy/light MS1 ratio (R value), CTSH (cathepsin H (CTSH)) | heavy/light MS1 ratio (R value), CTSS (cathepsin S (CTSS); [2]) | heavy/light MS1 ratio (R value), CTSS (cathepsin S (CTSS); [3]) | Compound | heavy/light MS1 ratio (R value), additional (non-cathepsin) cysteines [1] |
| --- | --- | --- | --- | --- | --- | --- | --- | --- | --- | --- | --- | --- |
| undetectable activity | 7.89 | – | – | – | – | – | – | – | – | – | CCCCCCCC(=O)N[C@@H](CCSC)C(=O)N[C@H](C=O)Cc1ccccc1 [Compound 16, N-octanoyl-Met-Phe-H] (Octanoyl-Met-Phe-aldehyde) | – |
| – | – | < 2.0 | > 5 | < 2.0 | > 20 | > 5 | > 2.78 | < 2.0 | > 5 | < 2.0 | N[C@@H](Cc1ccccc1)C(=O)N[C@H](C=O)Cc1ccccc1 [Phe-Phe-H] (H-Phe-Phe-aldehyde) | < 2.0 |
